The first data set deals with lung cancer cell line (A549). Kind of data set: tumor cell proliferation inhibition (CTG), lung cancer cell line. The data set is classed as cell-based. Particulars: Homo sapiens, 72 hours.
Chain of VEGFR3 (FLT4) (P35916 25-1363): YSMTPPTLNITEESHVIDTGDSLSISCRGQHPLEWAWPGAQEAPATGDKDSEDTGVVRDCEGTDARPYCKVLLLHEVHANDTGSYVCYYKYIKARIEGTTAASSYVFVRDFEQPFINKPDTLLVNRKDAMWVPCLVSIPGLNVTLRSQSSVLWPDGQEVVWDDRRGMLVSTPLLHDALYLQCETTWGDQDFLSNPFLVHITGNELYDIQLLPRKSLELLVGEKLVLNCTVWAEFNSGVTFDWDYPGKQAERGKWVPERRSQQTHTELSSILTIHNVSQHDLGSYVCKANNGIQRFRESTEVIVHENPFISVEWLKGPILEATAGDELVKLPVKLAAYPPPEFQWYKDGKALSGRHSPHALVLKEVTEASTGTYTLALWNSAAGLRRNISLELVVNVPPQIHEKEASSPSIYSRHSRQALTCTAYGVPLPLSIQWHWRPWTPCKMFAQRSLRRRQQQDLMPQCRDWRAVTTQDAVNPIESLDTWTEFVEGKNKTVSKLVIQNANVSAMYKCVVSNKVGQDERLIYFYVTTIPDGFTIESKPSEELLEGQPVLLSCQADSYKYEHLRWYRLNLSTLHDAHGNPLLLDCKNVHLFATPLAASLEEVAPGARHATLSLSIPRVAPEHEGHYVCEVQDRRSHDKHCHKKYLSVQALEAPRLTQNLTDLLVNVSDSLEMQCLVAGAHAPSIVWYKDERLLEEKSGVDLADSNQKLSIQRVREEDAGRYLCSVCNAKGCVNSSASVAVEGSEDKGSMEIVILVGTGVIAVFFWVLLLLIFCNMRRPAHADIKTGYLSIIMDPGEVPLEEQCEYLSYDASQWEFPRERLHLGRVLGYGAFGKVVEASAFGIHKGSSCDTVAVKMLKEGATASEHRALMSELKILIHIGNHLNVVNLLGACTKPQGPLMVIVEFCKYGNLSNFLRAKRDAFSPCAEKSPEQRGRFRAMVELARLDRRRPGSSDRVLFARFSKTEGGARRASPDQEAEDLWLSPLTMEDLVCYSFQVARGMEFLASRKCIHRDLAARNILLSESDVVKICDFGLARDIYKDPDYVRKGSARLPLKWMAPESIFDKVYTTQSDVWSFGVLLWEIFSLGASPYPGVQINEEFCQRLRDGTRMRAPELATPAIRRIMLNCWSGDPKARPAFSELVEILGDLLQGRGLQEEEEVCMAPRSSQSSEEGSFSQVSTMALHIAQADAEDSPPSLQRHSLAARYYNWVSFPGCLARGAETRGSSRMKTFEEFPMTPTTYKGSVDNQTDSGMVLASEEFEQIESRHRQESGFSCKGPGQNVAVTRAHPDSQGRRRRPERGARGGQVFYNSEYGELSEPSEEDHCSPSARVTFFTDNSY
Chain of FGFR2 (P21802 22-821): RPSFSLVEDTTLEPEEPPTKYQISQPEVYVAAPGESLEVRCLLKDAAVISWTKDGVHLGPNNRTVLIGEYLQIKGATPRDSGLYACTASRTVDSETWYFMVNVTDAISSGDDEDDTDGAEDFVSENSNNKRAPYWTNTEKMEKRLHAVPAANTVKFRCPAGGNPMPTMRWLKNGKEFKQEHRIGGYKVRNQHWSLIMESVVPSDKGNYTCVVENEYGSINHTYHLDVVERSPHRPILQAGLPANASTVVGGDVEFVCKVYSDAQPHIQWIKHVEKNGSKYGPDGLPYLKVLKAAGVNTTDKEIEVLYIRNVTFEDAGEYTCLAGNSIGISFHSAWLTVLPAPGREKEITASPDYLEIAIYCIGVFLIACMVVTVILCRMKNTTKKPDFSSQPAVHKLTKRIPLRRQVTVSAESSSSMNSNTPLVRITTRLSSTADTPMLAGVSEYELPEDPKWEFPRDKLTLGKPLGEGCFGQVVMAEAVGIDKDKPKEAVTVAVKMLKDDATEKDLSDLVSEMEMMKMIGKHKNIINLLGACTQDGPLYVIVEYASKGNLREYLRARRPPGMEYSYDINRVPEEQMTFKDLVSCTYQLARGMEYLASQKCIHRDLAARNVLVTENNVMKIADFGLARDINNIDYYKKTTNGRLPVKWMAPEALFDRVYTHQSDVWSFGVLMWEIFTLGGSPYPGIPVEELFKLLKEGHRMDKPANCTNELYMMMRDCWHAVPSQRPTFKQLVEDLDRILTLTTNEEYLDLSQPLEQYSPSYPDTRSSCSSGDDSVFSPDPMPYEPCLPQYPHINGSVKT
Regarding `COc1cc2nccc(Oc3c(F)cc(NC(=O)NC4CC4)c(Cl)c3F)c2cc1C(=O)NC[C@@H](O)CO` [IIIb-21], the IC50 was under 2.5 µM.
`COc1cc2nccc(Oc3ccc(NC(=O)NC4CC4)c(Cl)c3)c2cc1C(N)=O` [Lenvatinib, lenvatinib, reference compound]: the IC50 was over 5 µM.
Still for that read-out and setting: then `COc1cc2nccc(Oc3c(F)cc(NC(=O)NC4CC4)c(Cl)c3F)c2cc1C(=O)NCCF` [IIIb-06], with 2.5 to 5 µM; and `CNC(=O)c1cc2c(Oc3c(F)cc(NC(=O)NC4CC4)c(Cl)c3F)ccnc2cc1OC` [IIIb-01], with over 5 µM; and `COc1cc2nccc(Oc3c(F)cc(NC(=O)NC4CC4)c(Cl)c3OC)c2cc1C#N` [IIIb-30], with over 5 µM.
Take `COc1cc2nccc(Oc3c(F)cc(NC(=O)NC4CC4)c(Cl)c3F)c2cc1C(=O)NC1(CO)CC1` [IIIb-23]: the IC50 is over 5 µM.

The test system of the next data set is leukemia cell line (K562). Nature of the data set: tumor cell proliferation inhibition (CTG), leukemia cell line. The format is cell-based. Particulars: Homo sapiens, 72 hours.
On to `COc1cc2nccc(Oc3c(F)cc(NC(=O)NC4CC4)c(Cl)c3F)c2cc1C(=O)NC[C@@H](O)CO` [IIIb-21], for which the IC50 lay within 5 to 10 µM.
In turn, `COc1cc2nccc(Oc3ccc(NC(=O)NC4CC4)c(Cl)c3)c2cc1C(N)=O` [Lenvatinib, lenvatinib, reference compound] registered an IC50 of 5 to 10 µM.
In turn, `COc1cc2nccc(Oc3c(F)cc(NC(=O)NC4CC4)c(Cl)c3F)c2cc1C(=O)NCCF` [IIIb-06] showed a half-maximal inhibitory concentration (IC50) of 5 to 10 µM.

Test system in the next data set: not listed separately
Kind of data set: MTD toxicity test in rats. Particulars: rat, in vivo, 150 mg/kg; in rats; read-out: MTD toxicity dose. The format is in vivo.
`CNC(=O)c1cc2c(Oc3c(F)cc(NC(=O)NC4CC4)c(Cl)c3F)ccnc2cc1OC` [IIIb-01]: the MTD at 14 days was over 150 mg/kg.

Still in this data set, the particulars now being: rat, in vivo; toxicity study for MTD, species not stated.
The compound `CNC(=O)c1cc2c(Oc3c(F)cc(NC(=O)NC4CC4)c(Cl)c3F)ccnc2cc1OC` [IIIb-01] had an MTD of 300 mg/kg.

The test system of the next data set is cervical cancer cell lines (Hela). Kind of data set: tumor cell proliferation inhibition (CTG), cervical cancer cell line. Particulars: Homo sapiens, 72 hours. The format is cell-based.
`COc1cc2nccc(Oc3c(F)cc(NC(=O)NC4CC4)c(Cl)c3F)c2cc1C(=O)NC[C@@H](O)CO` [IIIb-21] showed an IC50 of over 10 µM.
The same measure, in the same setting: then `COc1cc2nccc(Oc3ccc(NC(=O)NC4CC4)c(Cl)c3)c2cc1C(N)=O` [Lenvatinib, lenvatinib, reference compound], with over 10 µM; and `COc1cc2nccc(Oc3c(F)cc(NC(=O)NC4CC4)c(Cl)c3F)c2cc1C(=O)NCCF` [IIIb-06], with under 5 µM.

A further data set concerns kidney cancer cell line (Caki-1). Nature of the data set: tumor cell proliferation inhibition (CTG), kidney cancer cell line. The data set is classed as cell-based. Particulars: Homo sapiens, 72 hours, read-out: Caki-1 (renal cancer) IC50.
Regarding `COc1cc2nccc(Oc3c(F)cc(NC(=O)NC4CC4)c(Cl)c3F)c2cc1C(=O)NC[C@@H](O)CO` [IIIb-21], the IC50 was under 2.5 µM.
For `COc1cc2nccc(Oc3ccc(NC(=O)NC4CC4)c(Cl)c3)c2cc1C(N)=O` [Lenvatinib, lenvatinib, reference compound], the IC50 was over 5 µM.
In the case of `COc1cc2nccc(Oc3c(F)cc(NC(=O)NC4CC4)c(Cl)c3F)c2cc1C(=O)NCCF` [IIIb-06], the IC50 is 2.5 to 5 µM.
In the case of `CNC(=O)c1cc2c(Oc3c(F)cc(NC(=O)NC4CC4)c(Cl)c3F)ccnc2cc1OC` [IIIb-01], the IC50 was over 5 µM.
On the same count and under the same terms, then `COc1cc2nccc(Oc3c(F)cc(NC(=O)NC4CC4)c(Cl)c3OC)c2cc1C#N` [IIIb-30], with over 5 µM.
As for `COc1cc2nccc(Oc3c(F)cc(NC(=O)NC4CC4)c(Cl)c3F)c2cc1C(=O)NC1(CO)CC1` [IIIb-23], the IC50 is over 5 µM.

The next data set deals with hepatocellular carcinoma cell line (Hep3B 2.1-7). Kind of data set: tumor cell proliferation inhibition (CTG), hepatocellular carcinoma cell line. The data set is classed as cell-based. Particulars: Homo sapiens, 72 hours.
`COc1cc2nccc(Oc3c(F)cc(NC(=O)NC4CC4)c(Cl)c3F)c2cc1C(=O)NC[C@@H](O)CO` [IIIb-21] showed a half-maximal inhibitory concentration (IC50) of 2.5 to 5 µM.
`COc1cc2nccc(Oc3ccc(NC(=O)NC4CC4)c(Cl)c3)c2cc1C(N)=O` [Lenvatinib, lenvatinib, reference compound] had an IC50 of over 5 µM.
With `COc1cc2nccc(Oc3c(F)cc(NC(=O)NC4CC4)c(Cl)c3F)c2cc1C(=O)NCCF` [IIIb-06], the IC50 was 2.5 to 5 µM.

In the next data set the target is RET (Homo sapiens (Human), UniProt P07949). Kind of data set: kinase inhibition, Mobility-Shift Assay. The data set is classed as biochemical. As to conditions: 23 μM ATP.
Take `COc1cc2nccc(Oc3c(F)cc(NC(=O)NC4CC4)c(Cl)c3F)c2cc1C(=O)NC[C@@H](O)CO` [IIIb-21]: the IC50 was in the range of 0.005 to 0.01 µM.

For the next data set, the system named is prostatic cancer (PC-3). Nature of the data set: tumor cell proliferation inhibition (CTG), PC-3. The data set is classed as cell-based. Particulars: 72 hours.
`COc1cc2nccc(Oc3c(F)cc(NC(=O)NC4CC4)c(Cl)c3F)c2cc1C(=O)NC[C@@H](O)CO` [IIIb-21] had an IC50 of over 10 µM.
On to `COc1cc2nccc(Oc3ccc(NC(=O)NC4CC4)c(Cl)c3)c2cc1C(N)=O` [Lenvatinib, lenvatinib, reference compound], for which the IC50 was over 10 µM.
Still for that read-out and setting: then `COc1cc2nccc(Oc3c(F)cc(NC(=O)NC4CC4)c(Cl)c3F)c2cc1C(=O)NCCF` [IIIb-06], with over 10 µM.

A further data set has as its target VEGFR2 (KDR) (Homo sapiens (Human), UniProt P35968). Nature of the data set: kinase inhibition, Mobility-Shift Assay. The data set is classed as biochemical. Particulars: VEGFR2, 92 μM ATP.
`COc1cc2nccc(Oc3c(F)cc(NC(=O)NC4CC4)c(Cl)c3F)c2cc1C(=O)NC[C@@H](O)CO` [IIIb-21]: the IC50 is under 0.005 µM.

A further data set concerns the target VEGFR3 (FLT4) (Homo sapiens (Human), UniProt P35916). Kind of data set: kinase inhibition, Mobility-Shift Assay. The format is biochemical. As to conditions: 84 μM ATP.
As for `COc1cc2nccc(Oc3c(F)cc(NC(=O)NC4CC4)c(Cl)c3F)c2cc1C(=O)NC[C@@H](O)CO` [IIIb-21], the IC50 was under 0.005 µM.
Turning to `COc1cc2nccc(Oc3ccc(NC(=O)NC4CC4)c(Cl)c3)c2cc1C(N)=O` [Lenvatinib, lenvatinib, reference compound], the IC50 was under 0.005 µM.

The next data set addresses FGFR2 (Homo sapiens (Human), UniProt P21802). Nature of the data set: kinase inhibition, Mobility-Shift Assay. The data set is classed as biochemical. Particulars: 1.9 μM ATP.
Regarding `COc1cc2nccc(Oc3c(F)cc(NC(=O)NC4CC4)c(Cl)c3F)c2cc1C(=O)NC[C@@H](O)CO` [IIIb-21], the IC50 was 0.05 to 0.1 µM.
For the compound `COc1cc2nccc(Oc3ccc(NC(=O)NC4CC4)c(Cl)c3)c2cc1C(N)=O` [Lenvatinib, lenvatinib, reference compound], the IC50 lay in the range of 0.05 to 0.1 µM.

For another data set, the target named is hERG potassium channels (Homo sapiens (Human), UniProt Q12809). Nature of the data set: in vitro inhibitory effect of hERG, whole-cell patch clamp. The data set is classed as cell-based. As to conditions: whole-cell recording, room temperature.
Chain of hERG potassium channels (Q12809 whole entry): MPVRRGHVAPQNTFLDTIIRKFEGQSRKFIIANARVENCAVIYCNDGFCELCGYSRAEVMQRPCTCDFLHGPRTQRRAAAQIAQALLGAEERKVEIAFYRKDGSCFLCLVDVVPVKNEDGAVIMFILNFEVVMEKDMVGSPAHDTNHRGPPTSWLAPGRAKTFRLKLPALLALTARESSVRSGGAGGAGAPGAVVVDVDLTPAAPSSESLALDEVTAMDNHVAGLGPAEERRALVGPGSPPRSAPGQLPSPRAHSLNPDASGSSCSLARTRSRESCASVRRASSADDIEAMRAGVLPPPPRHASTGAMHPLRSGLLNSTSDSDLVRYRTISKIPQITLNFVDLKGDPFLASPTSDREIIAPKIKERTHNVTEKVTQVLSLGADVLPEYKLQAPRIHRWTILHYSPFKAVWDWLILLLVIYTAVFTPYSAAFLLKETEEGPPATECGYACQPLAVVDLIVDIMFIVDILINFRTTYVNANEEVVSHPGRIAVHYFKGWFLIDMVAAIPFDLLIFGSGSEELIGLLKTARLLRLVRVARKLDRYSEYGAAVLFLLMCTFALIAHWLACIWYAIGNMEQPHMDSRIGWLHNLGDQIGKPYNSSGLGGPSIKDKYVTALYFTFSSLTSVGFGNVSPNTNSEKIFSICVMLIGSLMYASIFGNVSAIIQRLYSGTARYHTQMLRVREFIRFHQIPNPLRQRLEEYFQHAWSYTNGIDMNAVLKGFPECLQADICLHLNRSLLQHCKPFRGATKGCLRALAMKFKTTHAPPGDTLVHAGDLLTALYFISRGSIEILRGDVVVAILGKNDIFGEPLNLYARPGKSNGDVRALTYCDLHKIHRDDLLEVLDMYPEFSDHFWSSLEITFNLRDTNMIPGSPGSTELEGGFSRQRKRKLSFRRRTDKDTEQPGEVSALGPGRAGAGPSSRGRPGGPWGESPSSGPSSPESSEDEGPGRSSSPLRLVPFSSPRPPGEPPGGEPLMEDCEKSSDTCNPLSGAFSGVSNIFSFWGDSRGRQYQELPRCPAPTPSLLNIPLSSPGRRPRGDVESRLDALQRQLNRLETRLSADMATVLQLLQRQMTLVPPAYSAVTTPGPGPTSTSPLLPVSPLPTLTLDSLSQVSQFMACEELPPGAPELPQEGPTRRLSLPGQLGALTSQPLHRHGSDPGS
`COc1cc2nccc(Oc3c(F)cc(NC(=O)NC4CC4)c(Cl)c3F)c2cc1C(=O)NCCF` [IIIb-06]: the IC50 came out at 18.7 µM.
Turning to `CNC(=O)c1cc2c(Oc3c(F)cc(NC(=O)NC4CC4)c(Cl)c3F)ccnc2cc1OC` [IIIb-01], the IC50 is over 30 µM.
Still for that read-out and setting: then `CNC(=O)c1cc(Oc2ccc(NC(=O)Nc3ccc(Cl)c(C(F)(F)F)c3)cc2)ccn1` [Sorafenib, sorafenib, reference compound], with over 10 µM.

The next data set deals with pancreatic cancer cell line (BXPC3). Kind of data set: tumor cell proliferation inhibition (CTG), pancreatic cancer cell line. Particulars: Homo sapiens, BXPC-3, 72 hours. The data set is classed as cell-based.
The compound `COc1cc2nccc(Oc3c(F)cc(NC(=O)NC4CC4)c(Cl)c3F)c2cc1C(=O)NC[C@@H](O)CO` [IIIb-21] returned an IC50 of 5 to 10 µM.
In turn, `COc1cc2nccc(Oc3ccc(NC(=O)NC4CC4)c(Cl)c3)c2cc1C(N)=O` [Lenvatinib, lenvatinib, reference compound] had an IC50 of over 10 µM.
Compound `COc1cc2nccc(Oc3c(F)cc(NC(=O)NC4CC4)c(Cl)c3F)c2cc1C(=O)NCCF` [IIIb-06] showed an IC50 of over 10 µM.
`CNC(=O)c1cc2c(Oc3c(F)cc(NC(=O)NC4CC4)c(Cl)c3F)ccnc2cc1OC` [IIIb-01]: the IC50 is over 10 µM.
For `COc1cc2nccc(Oc3c(F)cc(NC(=O)NC4CC4)c(Cl)c3OC)c2cc1C#N` [IIIb-30], the IC50 is over 10 µM.
For `COc1cc2nccc(Oc3c(F)cc(NC(=O)NC4CC4)c(Cl)c3F)c2cc1C(=O)NC1(CO)CC1` [IIIb-23], the IC50 is over 10 µM.

The next data set relates to gastric cancer cell line (SNU16). Nature of the data set: tumor cell proliferation inhibition (CTG), gastric cancer cell line. Particulars: Homo sapiens, SNU-16, 72 hours, read-out: SUN16 IC50. The data set is classed as cell-based.
In the case of `COc1cc2nccc(Oc3c(F)cc(NC(=O)NC4CC4)c(Cl)c3F)c2cc1C(=O)NC[C@@H](O)CO` [IIIb-21], the IC50 was over 10 µM.
`COc1cc2nccc(Oc3ccc(NC(=O)NC4CC4)c(Cl)c3)c2cc1C(N)=O` [Lenvatinib, lenvatinib, reference compound]: the IC50 was 5 to 10 µM.
In the case of `COc1cc2nccc(Oc3c(F)cc(NC(=O)NC4CC4)c(Cl)c3F)c2cc1C(=O)NCCF` [IIIb-06], the IC50 was over 10 µM.

The target in another data set is VEGFR1 (FLT1) (Homo sapiens (Human), UniProt P17948). Nature of the data set: kinase inhibition, Mobility-Shift Assay. The data set is classed as biochemical. Particulars: 278 μM ATP.
Chain of VEGFR1 (FLT1) (P17948 27-1338): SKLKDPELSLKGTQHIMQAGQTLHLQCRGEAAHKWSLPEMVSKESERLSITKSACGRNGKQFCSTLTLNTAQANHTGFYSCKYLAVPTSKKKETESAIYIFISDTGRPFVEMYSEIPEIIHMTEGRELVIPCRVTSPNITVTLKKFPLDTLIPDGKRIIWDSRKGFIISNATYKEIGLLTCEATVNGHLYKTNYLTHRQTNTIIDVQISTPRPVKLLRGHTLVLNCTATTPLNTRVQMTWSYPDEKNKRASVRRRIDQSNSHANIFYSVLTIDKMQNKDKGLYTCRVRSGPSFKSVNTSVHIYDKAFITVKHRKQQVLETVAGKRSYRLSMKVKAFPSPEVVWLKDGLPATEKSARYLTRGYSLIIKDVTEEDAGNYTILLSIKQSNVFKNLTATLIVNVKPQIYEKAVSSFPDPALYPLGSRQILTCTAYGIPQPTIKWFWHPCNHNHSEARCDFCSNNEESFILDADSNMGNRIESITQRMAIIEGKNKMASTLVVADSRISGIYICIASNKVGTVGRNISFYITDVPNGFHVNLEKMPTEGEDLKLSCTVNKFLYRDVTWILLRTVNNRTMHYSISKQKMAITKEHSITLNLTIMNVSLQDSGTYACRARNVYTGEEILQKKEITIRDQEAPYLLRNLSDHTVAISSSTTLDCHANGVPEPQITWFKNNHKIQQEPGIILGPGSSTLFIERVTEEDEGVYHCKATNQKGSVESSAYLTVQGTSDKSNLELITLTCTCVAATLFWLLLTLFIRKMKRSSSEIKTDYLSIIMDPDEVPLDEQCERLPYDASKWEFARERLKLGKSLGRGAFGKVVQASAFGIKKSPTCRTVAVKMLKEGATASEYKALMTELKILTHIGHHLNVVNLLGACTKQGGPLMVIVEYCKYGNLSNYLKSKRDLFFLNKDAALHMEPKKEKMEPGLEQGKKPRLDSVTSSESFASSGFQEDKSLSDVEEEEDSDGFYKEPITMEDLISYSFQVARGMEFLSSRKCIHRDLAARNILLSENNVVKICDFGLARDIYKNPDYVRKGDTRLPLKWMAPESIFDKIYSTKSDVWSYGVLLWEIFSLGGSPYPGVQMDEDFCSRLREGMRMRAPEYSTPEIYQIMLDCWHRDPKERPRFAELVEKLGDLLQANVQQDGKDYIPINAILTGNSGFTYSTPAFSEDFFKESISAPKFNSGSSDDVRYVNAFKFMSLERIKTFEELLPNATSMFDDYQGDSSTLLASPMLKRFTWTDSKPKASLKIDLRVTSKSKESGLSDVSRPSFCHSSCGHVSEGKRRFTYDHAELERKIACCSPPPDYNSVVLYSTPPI
As to `COc1cc2nccc(Oc3c(F)cc(NC(=O)NC4CC4)c(Cl)c3F)c2cc1C(=O)NC[C@@H](O)CO` [IIIb-21], the IC50 is under 0.005 µM.
Take `COc1cc2nccc(Oc3ccc(NC(=O)NC4CC4)c(Cl)c3)c2cc1C(N)=O` [Lenvatinib, lenvatinib, reference compound]: the IC50 was 0.005 to 0.01 µM.

As a reminder, the IC50 is the concentration needed to halve the response being measured.

(Values after patent US11912663B2, “Multi-targeted tyrosine kinase inhibitors and their pharmaceutical uses” (Shanghai AB PharmaTech Ltd., priority 2021, dated 2024).)
